Experiment [1] has as its target T1, Neuropeptide Y receptor type 4 (Homo sapiens, UniProt P50391). The experiment is described as follows: Agonist activity at human Y4 receptor expressed in sf9 cells assessed as hydrolysis of [gamma-33P]GTP after 2 mins by scintillation counting analysis.
Experiment [2] deals with T1, Neuropeptide Y receptor type 4. The experiment is described as follows: Displacement of Cy5-[K4]hPP from human Y4 receptor expressed in CHO cells after 90 to 120 mins by flow cytometry. Type of experiment: cell-based. (In flow cytometry, cells or beads pass a laser one at a time.)
For experiment [3], the target named is T2, Neuropeptide Y receptor type 1 (Homo sapiens, UniProt P25929).
T2 sequence (P25929 whole entry): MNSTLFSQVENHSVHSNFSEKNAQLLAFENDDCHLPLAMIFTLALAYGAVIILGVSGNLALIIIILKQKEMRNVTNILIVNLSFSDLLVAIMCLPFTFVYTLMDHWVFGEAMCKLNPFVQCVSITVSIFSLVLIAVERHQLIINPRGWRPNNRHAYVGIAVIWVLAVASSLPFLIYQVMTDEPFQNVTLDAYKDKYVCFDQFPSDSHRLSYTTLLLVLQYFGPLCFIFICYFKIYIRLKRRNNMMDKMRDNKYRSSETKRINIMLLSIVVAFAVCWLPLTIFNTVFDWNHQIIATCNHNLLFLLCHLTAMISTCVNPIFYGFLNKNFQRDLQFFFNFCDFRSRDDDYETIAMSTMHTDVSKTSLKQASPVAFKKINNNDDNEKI
The experiment is described as follows: Displacement of Cy5-pNPY from human Y1 receptor expressed in HEL cells after 90 to 120 mins by flow cytometry. The class given is cell-based.

Experiment [4] addresses T3, Neuropeptide Y receptor type 2 (Homo sapiens, UniProt P49146).
T3 sequence (P49146 whole entry): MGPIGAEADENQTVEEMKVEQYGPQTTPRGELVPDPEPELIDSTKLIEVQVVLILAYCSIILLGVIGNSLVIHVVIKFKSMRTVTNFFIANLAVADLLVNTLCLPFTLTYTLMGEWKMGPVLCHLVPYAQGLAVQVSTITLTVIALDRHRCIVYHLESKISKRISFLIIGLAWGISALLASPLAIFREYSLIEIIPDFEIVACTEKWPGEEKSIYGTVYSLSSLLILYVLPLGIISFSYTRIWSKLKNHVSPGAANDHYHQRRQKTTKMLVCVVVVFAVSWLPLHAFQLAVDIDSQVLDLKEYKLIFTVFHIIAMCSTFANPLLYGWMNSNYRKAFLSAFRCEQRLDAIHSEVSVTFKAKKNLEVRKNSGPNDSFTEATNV
The experiment is described as follows: Displacement of Cy5-pNPY from human Y2 receptor expressed in CHO cells after 90 to 120 mins by flow cytometry. Type of experiment: cell-based.

Experiment [5] has as its target T4, Neuropeptide Y receptor type 5 (Homo sapiens, UniProt Q15761).
T4 sequence (Q15761 whole entry): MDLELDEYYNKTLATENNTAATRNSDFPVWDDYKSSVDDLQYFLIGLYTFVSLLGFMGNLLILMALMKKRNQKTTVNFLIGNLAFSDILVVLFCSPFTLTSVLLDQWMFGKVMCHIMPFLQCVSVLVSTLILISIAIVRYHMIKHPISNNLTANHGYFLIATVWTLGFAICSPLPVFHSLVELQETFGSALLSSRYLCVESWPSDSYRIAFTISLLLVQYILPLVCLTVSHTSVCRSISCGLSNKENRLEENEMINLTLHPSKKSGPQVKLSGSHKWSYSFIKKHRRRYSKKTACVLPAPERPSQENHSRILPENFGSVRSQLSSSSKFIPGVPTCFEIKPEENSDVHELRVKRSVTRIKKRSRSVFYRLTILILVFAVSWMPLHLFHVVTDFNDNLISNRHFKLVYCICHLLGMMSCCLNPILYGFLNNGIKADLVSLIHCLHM
Put plainly: Displacement of Cy5-pNPY from human Y5 receptor expressed in human HEC-1B cells after 90 to 120 mins by flow cytometry. Type of experiment: cell-based.

Residues, ends and D or L forms follow the SMILES beside them.

T1 sequence (P50391 whole entry): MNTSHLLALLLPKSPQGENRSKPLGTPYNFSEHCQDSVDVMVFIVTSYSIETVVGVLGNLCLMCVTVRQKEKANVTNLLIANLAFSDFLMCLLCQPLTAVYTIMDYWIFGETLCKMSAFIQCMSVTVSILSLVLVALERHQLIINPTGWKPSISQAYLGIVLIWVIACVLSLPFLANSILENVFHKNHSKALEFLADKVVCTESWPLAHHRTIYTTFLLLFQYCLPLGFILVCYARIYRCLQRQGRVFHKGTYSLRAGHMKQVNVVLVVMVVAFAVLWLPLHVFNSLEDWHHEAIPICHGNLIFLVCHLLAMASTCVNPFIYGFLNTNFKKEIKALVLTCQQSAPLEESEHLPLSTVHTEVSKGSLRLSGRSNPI

What is called EC50 is the concentration that produces a half-maximal response. As usually defined, the Ki is a measure of affinity in units of concentration, obtained from inhibition or displacement. A high value points to lower affinity. As for Ac-RHYINLITRLRY-NH2, the EC50 in experiment [1] was 100 nM. Moreover, the Ki in experiment [2] is 157 nM; in experiment [3], > 1000 nM; in experiment [4] it was > 1000 nM; in experiment [5], > 1000 nM.
Regarding Ac-YRLRY-NH2, the Ki in experiment [3], in experiment [4] and in experiment [5] was > 1000 nM each time.
Consider `CC[C@H](C)[C@H](NC(=O)[C@H](Cc1ccc(O)cc1)NC(=O)[C@H](Cc1cnc[nH]1)NC(=O)[C@H](CCCN=C(N)N)NC(C)=O)C(=O)N[C@@H](CC(N)=O)C(=O)N[C@@H](CC(C)C)C(=O)N[C@H](C(=O)N[C@@H]1C[C@H](C(=O)N[C@@H](CCCN=C(N)N)C(=O)N[C@@H]2C[C@H](C(=O)N[C@@H](CCCNC(=N)N)C(=O)N[C@@H](Cc3ccc(O)cc3)C(N)=O)C2(C)C)C1(C)C)[C@@H](C)CC` (HELM PEPTIDE1{[ac].R.H.Y.I.N.L.I.[CC1(C)[C@@H](C(=O)[*:2])C[C@H]1N[*:1]].R.[CC1(C)[C@@H](C(=O)[*:2])C[C@H]1N[*:1]].R.Y.[am]}$$$$V2.0), for which the EC50 in experiment [1] was found to be 11 nM. Further, the Ki was 0.53 nM in experiment [2], > 1000 nM in experiment [3], > 1000 nM in experiment [4] and > 1000 nM in experiment [5].
Consider `CCCC[C@H](NC(=O)[C@H](CC(N)=O)NC(=O)[C@@H](NC(=O)[C@H](Cc1ccc(O)cc1)NC(=O)[C@H](CCCNC(=N)N)NC(=O)[C@H](CCCNC(=N)N)NC(C)=O)[C@@H](C)CC)C(=O)N[C@@H](CC(C)C)C(=O)N[C@H](C(=O)N[C@@H](CCCNC(=N)N)C(=O)N[C@H]1CCC[C@H]1C(=O)N[C@@H](CCCNC(=N)N)C(=O)N[C@@H](Cc1ccc(O)cc1)C(N)=O)[C@@H](C)O` (HELM PEPTIDE1{[ac].R.R.Y.I.N.[Nle].L.T.R.[O=C([C@@H]1CCC[C@@H]1N[*:1])[*:2]].R.Y.[am]}$$$$V2.0), for which, in experiment [1], the half-maximal effective concentration (EC50) stood at 51 nM. The Ki in experiment [2] is 14 nM; in experiment [3], > 1000 nM; in experiment [4] it was 217 nM; in experiment [5], > 500 nM.
As to `CC[C@H](C)[C@H](NC(=O)[C@H](Cc1ccc(O)cc1)NC(=O)[C@H](Cc1cnc[nH]1)NC(=O)[C@H](CCCNC(=N)N)NC(C)=O)C(=O)N[C@@H](CC(N)=O)C(=O)N[C@@H](CC(C)C)C(=O)N[C@H](C(=O)N[C@H](C(=O)N[C@@H](CCCNC(=N)N)C(=O)N[C@H]1C[C@@H](C(=O)N[C@@H](CCCNC(=N)N)C(=O)N[C@@H](Cc2ccc(O)cc2)C(N)=O)C1(C)C)[C@@H](C)O)[C@@H](C)CC` (HELM PEPTIDE1{[ac].R.H.Y.I.N.L.I.T.R.[CC1(C)[C@@H](N[*:1])C[C@H]1C(=O)[*:2]].R.Y.[am]}$$$$V2.0), the Ki in experiment [2], in experiment [3], in experiment [4] and in experiment [5] was > 1000 nM in each case.
Turning to `CCCC[C@H](NC(=O)[C@H](CC(N)=O)NC(=O)[C@@H](NC(=O)[C@H](Cc1ccc(O)cc1)NC(=O)[C@H](CCCNC(=N)N)NC(=O)[C@H](CCCNC(=N)N)NC(C)=O)[C@@H](C)CC)C(=O)N[C@@H](CC(C)C)C(=O)N[C@H](C(=O)N[C@@H](CCCNC(=N)N)C(=O)N[C@H]1CC[C@H]1C(=O)N[C@@H](CCCNC(=N)N)C(=O)N[C@@H](Cc1ccc(O)cc1)C(N)=O)[C@@H](C)O` (HELM PEPTIDE1{[ac].R.R.Y.I.N.[Nle].L.T.R.[O=C([C@@H]1CC[C@@H]1N[*:1])[*:2]].R.Y.[am]}$$$$V2.0), the EC50 in experiment [1] amounted to 284 nM. Moreover, the Ki was 93 nM in experiment [2], > 1000 nM in experiment [3], 708 nM in experiment [4] and > 1000 nM in experiment [5].
As to `CC[C@H](C)[C@H](NC(=O)[C@H](Cc1ccc(O)cc1)NC(=O)[C@H](Cc1cnc[nH]1)NC(=O)[C@H](CCCNC(=N)N)NC(C)=O)C(=O)N[C@@H](CC(N)=O)C(=O)N[C@@H](CC(C)C)C(=O)N[C@@H](CCCNC(=N)N)C(=O)N[C@H]1CC[C@H]1C(=O)N[C@@H](CCCNC(=N)N)C(=O)N[C@H]1CC[C@H]1C(=O)N[C@@H](CCCNC(=N)N)C(=O)N[C@@H](Cc1ccc(O)cc1)C(N)=O` (HELM PEPTIDE1{[ac].R.H.Y.I.N.L.R.[O=C([C@@H]1CC[C@@H]1N[*:1])[*:2]].R.[O=C([C@@H]1CC[C@@H]1N[*:1])[*:2]].R.Y.[am]}$$$$V2.0), the EC50 in experiment [1] is 66 nM. The Ki in experiment [2] is 35 nM; in experiment [3] it was > 1000 nM; in experiment [4], > 1000 nM; in experiment [5], > 1000 nM.
With `CC[C@H](C)[C@H](NC(=O)[C@H](Cc1ccc(O)cc1)NC(=O)[C@H](Cc1cnc[nH]1)NC(=O)[C@H](CCCN=C(N)N)NC(C)=O)C(=O)N[C@@H](CC(N)=O)C(=O)N[C@@H](CC(C)C)C(=O)N[C@H](C(=O)N[C@H]1CCC[C@H]1C(=O)N[C@@H](CCCN=C(N)N)C(=O)N[C@H]1CCC[C@H]1C(=O)N[C@@H](CCCN=C(N)N)C(=O)N[C@@H](Cc1ccc(O)cc1)C(N)=O)[C@@H](C)CC` (HELM PEPTIDE1{[ac].R.H.Y.I.N.L.I.[O=C([C@@H]1CCC[C@@H]1N[*:1])[*:2]].R.[O=C([C@@H]1CCC[C@@H]1N[*:1])[*:2]].R.Y.[am]}$$$$V2.0), the EC50 in experiment [1] stood at 48 nM. The Ki in experiment [2] is 37 nM; in experiment [3], > 1000 nM; in experiment [4] it was > 1000 nM; in experiment [5] it was > 500 nM.
Take `CC(=O)N[C@H](C(=O)N[C@@H](CCCNC(=N)N)C(=O)N[C@H]1CCC[C@H]1C(=O)N[C@@H](CCCNC(=N)N)C(=O)N[C@@H](Cc1ccc(O)cc1)C(N)=O)[C@@H](C)O` (HELM PEPTIDE1{[ac].T.R.[O=C([C@@H]1CCC[C@@H]1N[*:1])[*:2]].R.Y.[am]}$$$$V2.0): the EC50 in experiment [1] came to 451 nM. Moreover, the Ki in experiment [2] is 509 nM; in experiment [3], > 1000 nM; in experiment [4], > 1000 nM; in experiment [5], > 1000 nM.
Turning to `CC(=O)N[C@@H](Cc1ccc(O)cc1)C(=O)N[C@@H](CCCNC(=N)N)C(=O)N[C@H]1CCC[C@H]1C(=O)N[C@@H](CCCN=C(N)N)C(=O)N[C@@H](Cc1ccc(O)cc1)C(N)=O` (HELM PEPTIDE1{[ac].Y.R.[O=C([C@@H]1CCC[C@@H]1N[*:1])[*:2]].R.Y.[am]}$$$$V2.0), the EC50 in experiment [1] worked out at 94 nM. In addition, the Ki in experiment [2] was 105 nM; in experiment [3], > 1000 nM; in experiment [4], > 1000 nM; in experiment [5], > 1000 nM.
On to `CC[C@H](C)[C@H](NC(=O)[C@H](Cc1ccc(O)cc1)NC(=O)[C@H](CCCNC(=N)N)NC(=O)[C@H](CCCNC(=N)N)NC(C)=O)C(=O)N[C@@H](CC(N)=O)C(=O)N[C@@H](CC(N)=O)C(=O)N[C@@H](CC(C)C)C(=O)N[C@H](C(=O)N[C@@H](CCCNC(=N)N)C(=O)N[C@H]1CC[C@H]1C(=O)N[C@@H](CCCNC(=N)N)C(=O)N[C@@H](Cc1ccc(O)cc1)C(N)=O)[C@@H](C)O` (HELM PEPTIDE1{[ac].R.R.Y.I.N.N.L.T.R.[O=C([C@@H]1CC[C@@H]1N[*:1])[*:2]].R.Y.[am]}$$$$V2.0), for which the EC50 in experiment [1] turned out to be 76 nM. Moreover, the Ki in experiment [2] is 70 nM; in experiment [3], > 1000 nM; in experiment [4], > 1000 nM; in experiment [5], > 1000 nM.
On to Ac-TRLRY-NH2, for which, in experiment [1], the EC50 was 291 nM. For the same compound, the Ki was 490 nM in experiment [2], > 1000 nM in experiment [3], > 1000 nM in experiment [4] and > 1000 nM in experiment [5].
Consider `CC[C@H](C)[C@H](NC(=O)[C@H](Cc1ccc(O)cc1)NC(=O)[C@H](Cc1cnc[nH]1)NC(=O)[C@H](CCCNC(=N)N)NC(C)=O)C(=O)N[C@@H](CC(N)=O)C(=O)N[C@@H](CC(C)C)C(=O)N[C@H](C(=O)N[C@H](C(=O)N[C@@H](CCCNC(=N)N)C(=O)N[C@H]1CC[C@H]1C(=O)N[C@@H](CCCNC(=N)N)C(=O)N[C@@H](Cc1ccc(O)cc1)C(N)=O)[C@@H](C)O)[C@@H](C)CC` (HELM PEPTIDE1{[ac].R.H.Y.I.N.L.I.T.R.[O=C([C@@H]1CC[C@@H]1N[*:1])[*:2]].R.Y.[am]}$$$$V2.0), for which the EC50 in experiment [1] worked out at 122 nM. Moreover, the Ki is 72 nM in experiment [2], > 1000 nM in experiment [3], > 1000 nM in experiment [4] and > 1000 nM in experiment [5].

For the origin of these results see ChEMBL document CHEMBL2439969, “Replacement of Thr32 and Gln34 in the C-terminal neuropeptide Y fragment 25-36 by cis-cyclobutane and cis-cyclopentane β-amino acids shifts selectivity toward the Y(4) receptor” (J Med Chem, 2013).
